Source: patent US5362364A, “Process for producing alkaline paper” (Mitsubishi Paper Mills Limited, priority 1990, dated 1994)

Key:
[1] = Stockigt sizing degree of paper according to JIS P 8122; type: physicochemical; conditions: compared with Sample 3-1 and 4-1 (DMTT) or Sample 7-1 and 8-1 (bromonitroalcohol)
Protocol: The paper stock immediately after prepared was used to prepare a hand sheet having a basis weight of 60 g/m^2. The resulting sheet was dried at 80° C. for 5 min. in a hot air drier. The sheet thus prepared was called "Sample 1-1".
In the above, the sizing degree was measured by Testing method for Stockigt sizing degree of paper according to JIS P 8122.
The 0.1% addition of the alkylketene dimer should develop the sizing degree of 20-25 sec. unless other chemicals used together interfere with it.
The paper stock immediately after prepared was used to prepare a handmade sheet having a basis weight of 60 g/m^2. The resulting sheet was dried at 80° C. for 5 min. in a hot air drier. The sheet thus prepared was called "Sample 5-1".
(§1) Measurement of the sizing degree, evaluation of the mutagenicity, and ninhydrin reaction in Table 3 and Table 4 were conducted in the same manner as in Table 1 and Table 2.

[2] = tested on: Salmonella typyhimurium TA 100; assay: mutagenicity test (reverse mutation test) on hand sheet extract, Ministry of Labor Order No. 261; type: cell-based; conditions: compared with Sample 3-1 and 4-1 (DMTT) or Sample 7-1 and 8-1 (bromonitroalcohol)
Protocol: That is, each hand sheet was subjected to extraction using a mixture of benzene/ethanol (9/1, by volume) at 80° C. for three hours, and the resulting extractant was subjected to a reverse mutation test using Salmonella typyhimurium TA 100 without following a metabolism activating method.
When the number of reverse mutation colony increased to twice or more that in the case of dimethyl sulfoxide used as a control solvent, it was determined "positive".

[3] = tested on: slime; assay: ninhydrin reaction of the paper stock filtrate (slime formation); conditions: for slime inhibiting effect: slimecide added in advance to cationic starch, compared with conventional direct addition
Protocol: (§2) A part of the paper stock as obtained above was stored at 32° C. for 7 days and then, filtered by means of a wire screen. The filtrate was subjected to ninhydrin reaction and the effectiveness of the slimecide controlling agent was evaluated based on the result of the ninhydrin reaction. The filtrate was called "Sample 1-2".
Ninhydrin reaction was effected by adding 0.5 ml of a 1% aqueous solution of nonhydrin to 10 ml of the filtrate, and the result was evaluated depending on the degree of color change of the resulting solution to reddish purple.
as §2, with “net.” for “screen.”, “slime” for “slimecide”, “5-2".” for “1-2".”
as §1

Row | Structure (SMILES) | effect on sizing [1] | safety for man [2] | amount of slimecide relative to amount added in conventional manner ([3]; slime inhibition with slimecide added in advance to cationic starch, based on paper stock solid matter) | slime inhibiting effect [3]
1 | O=[N+]([O-])C(Br)(CO)CO [2-bromo-2-nitropropane-1,3-diol] | nor adversely affects the sizing property | neither harmful to man | about 1/10 | slime formation can be effectively inhibited
2 | CN1CSC(=S)N(C)C1 [DMTT, 3,5-dimethyltetrahydro-1,3,5-2H-thiadiazine-2-thione] | minimal adverse effect on sizing | – | – | excellent slime inhibiting effect
